Patent US20160081309A1, “FRUCTOBACILLUS AS A PROBIOTIC FOR HONEYBEES” (Indiana University Research & Technology Corporation, priority 2014, published 2016)

Tests used:
Fructobacillus sp. = test: Antibiotic sensitivity test, soft agar overlay with antibiotic discs; format: cell-based; conditions: Fructobacillus soft MRS agar overlay, disc content 5-30 mcg as given per antibiotic; for Zone of Inhibition: BBL Sensi-Disc
Protocol: Evolutionary analyses were conducted in MEGA6 using the 16S rRNA gene sequences and using a Maximum Likelihood method based on the General Time Reversible Model with a gamma distribution, invariable sites and 100 bootstrap replicates (Tamura et al. (2013) Mol Biol Evol, 30:2725-2729). For antibiotic sensitivity tests, overnight cultures of Fructobacillus sp. were mixed with soft MRS agar and overlayed onto MRS plates onto which an antibiotic impregnated disc had been placed. Diameters of zones of inhibition were measured around each antibiotic disc using a ruler. Antibiotics used were BBL Sensi-Disc tetracycline 30 mcg, ampicillin with sulbactam 20 mcg, rifampin 5 mcg, ciprofloxacin 5 mcg, and vancomycin 30 mcg.
Honey bees are commonly prophylactically treated with oxytetracycline for the prevention of foulbrood diseases caused by the bacteria Melissococcus plutonius and Paenibacillus larvae. […] The bacterial strain's resistance to antibiotics was determined, as treatment might alter the abundance of Fructobacillus in the hive. Using soft agar overlays, Fructobacillus cultures were exposed to five different antibiotics (tetracycline, ampicillin (with sulbactam), rifampicin, ciprofloxacin, and vancomycin), and the resulting zones of inhibition were measured (Table 3). […] These two antibiotics are commonly used in agriculture.

Fructobacillus FJL = test: Carbon source utilization assay (Biolog MT2 plates); format: cell-based; conditions: 2% carbohydrate, Biolog MT2, 30° C. aerobic; versus water-only controls, unpaired t-test p≦0.001
Protocol: The same Fructobacillus isolate as used for co-culture assays was grown for 72 hours in MRS broth at 30° C. under aerobic conditions. Cells were pelleted via centrifugation and the supernatant was removed. The pellet was resuspended in a buffer of 0.1M Tris-HCl (pH 6.5). This centrifugation and resuspension process was performed twice to ensure removal of all residual MRS. 15 μl of cell suspension was added to each well of a Biolog MT2 plate (Biolog Inc.). To this, 150 μl of 2% carbohydrate solutions were added to the wells, with each carbohydrate repeated in triplicate. Additionally, water control wells were established in triplicate, inoculated with cell suspension and filtered, autoclaved water. […] Plates were read via spectrophotometry at A590 immediately following inoculation in order to establish as baseline. Plates were incubated aerobically at 30° C., and A590 readings were taken every 24 hours. […] To assess whether a carbon source was utilized, absorbance readings from time points with peak absorbance were compared to absorbance of the initial time point. Absorbance in water control wells was subtracted from absorbance in carbohydrate containing wells. […] A carbon source was determined to have been utilized by Fructobacillus if the difference was statistically significant with a p-value of 0.001 or lower.

Row | Compound | Zone of Inhibition (Fructobacillus sp.) [mm] | Interpretation (antibiotic sensitivity) (Fructobacillus sp.) | Utilization of carbon source by Fructobacillus (Fructobacillus FJL)
1 | O=C(O)c1cn(C2CC2)c2cc(N3CCNCC3)c(F)cc2c1=O [Ciprofloxacin] | 9 | Resistant | 
2 | CO[C@H]1/C=C/O[C@@]2(C)Oc3c(C)c(O)c4c(O)c(c(/C=N/N5CCN(C)CC5)c(O)c4c3C2=O)NC(=O)/C(C)=C\C=C\[C@H](C)[C@H](O)[C@@H](C)[C@@H](O)[C@@H](C)[C@H](OC(C)=O)[C@@H]1C [Rifampin] | 25 | Susceptible | 
3 | CN(C)[C@@H]1C(O)=C(C(N)=O)C(=O)[C@@]2(O)C(O)=C3C(=O)c4c(O)cccc4[C@@](C)(O)[C@H]3C[C@@H]12 [Tetracycline] | 32 |  | 
4 | CN[C@H](CC(C)C)C(=O)N[C@H]1C(=O)N[C@@H](CC(N)=O)C(=O)N[C@H]2C(=O)N[C@H]3C(=O)N[C@H](C(=O)N[C@H](C(=O)O)c4cc(O)cc(O)c4-c4cc3ccc4O)[C@H](O)c3ccc(c(Cl)c3)Oc3cc2cc(c3O[C@@H]2O[C@H](CO)[C@@H](O)[C@H](O)[C@H]2O[C@H]2C[C@](C)(N)[C@H](O)[C@H](C)O2)Oc2ccc(cc2Cl)[C@H]1O [Vancomycin] | 0 | Resistant | 
5 | O=C(CO)[C@@H](O)[C@H](O)[C@H](O)CO [fructose] |  |  | capable of utilizing
